Here are results for 22 compounds from PubChem BioAssay AID330 (DTP/NCI, 2004).

Several values for one entry are separate records, joined by “and”; a condition that tells them apart may be missing. Equal entries are not always repeated. Inconclusive results and toxic doses are left out.

The assay has as its system P388 leukemia ip, CD2F1 mice, survival T/C. Description: NCI In Vivo Anticancer Drug Screen. Data for tumor model P388 Leukemia (intraperitoneal) in CD2F1 (CDF1) mice. To be noted: endpoint: median survival time, higher = longer survival. The method in brief: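 Mice carrying the transplanted tumor received test compound or vehicle. Survival was recorded in each group, and the value is the treated-group measurement divided by that of the vehicle-treated control group.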

[1] abbreviates: dose: 50.0 mg/kg/injection, schedule: Q01DX005 (ip), vehicle: saline with Tween-80.
Where [2] appears, read: dose: 100.0 mg/kg/injection, schedule: Q01DX005 (ip), vehicle: saline with Tween-80.
The mark [3] stands for this setting: dose: 200.0 mg/kg/injection, schedule: Q01DX005 (ip), vehicle: saline with Tween-80.
[4] abbreviates: dose: 50.0 mg/kg/injection, schedule: Q01DX009 (ip), vehicle: saline with Tween-80.
The mark [5] stands for this setting: dose: 100.0 mg/kg/injection, schedule: Q01DX009 (ip), vehicle: saline with Tween-80.
The mark [6] stands for this setting: dose: 200.0 mg/kg/injection, schedule: Q01DX009 (ip), vehicle: saline with Tween-80.
[7] abbreviates: dose: 50.0 mg/kg/injection, schedule: Q01DX005 (ip), vehicle: Klucel (hydroxypropylcellulose) (HPC).
Where [8] appears, read: dose: 100.0 mg/kg/injection, schedule: Q01DX005 (ip), vehicle: Klucel (hydroxypropylcellulose) (HPC).
[9] abbreviates: dose: 50.0 mg/kg/injection, schedule: Q01DX009 (ip), vehicle: Klucel (hydroxypropylcellulose) (HPC).
Where [10] appears, read: dose: 100.0 mg/kg/injection, schedule: Q01DX009 (ip), vehicle: Klucel (hydroxypropylcellulose) (HPC).
Where [11] appears, read: dose: 6.25 mg/kg/injection, schedule: Q01DX005 (ip), vehicle: saline with Tween-80.
Where [12] appears, read: dose: 12.5 mg/kg/injection, schedule: Q01DX005 (ip), vehicle: saline with Tween-80.
Where [13] appears, read: dose: 25.0 mg/kg/injection, schedule: Q01DX005 (ip), vehicle: saline with Tween-80.

With `COc1cc2c(cc1OC)/C(=N/N=C1\CCCc3cc(OC)c(OC)cc31)CCC2`, the T/C is 93 % of control (dose: 6.25 mg/kg/injection, schedule: Q01DX009 (ip), vehicle: other); 98 % of control (dose: 6.25 mg/kg/injection, schedule: Q01DX009 (ip), vehicle: water); 92 % of control (dose: 12.5 mg/kg/injection, schedule: Q01DX009 (ip), vehicle: other); 86 % of control (dose: 12.5 mg/kg/injection, schedule: Q01DX009 (ip), vehicle: water); 92 % of control (dose: 25.0 mg/kg/injection, schedule: Q01DX009 (ip), vehicle: other); 86 % of control (dose: 25.0 mg/kg/injection, schedule: Q01DX009 (ip), vehicle: water). Moreover, the T/C reads like this: (dose: 50.0 mg/kg/injection, schedule: Q01DX009 (ip), vehicle: other) 90 % of control; (dose: 100.0 mg/kg/injection, schedule: Q01DX009 (ip), vehicle: other) 88 % of control; (dose: 100.0 mg/kg/injection, schedule: Q01DX009 (ip), vehicle: water) 91 % of control.

Regarding `Cc1ccc(-n2c(=S)n(-c3ccccc3C)c3nc4ccccc4nc2/c3=N\Nc2ccccc2)cc1`, the T/C reads like this: (dose: 60.0 mg/kg/injection, schedule: Q01DX005 (ip), vehicle: saline with Tween-80) 100 % of control; (dose: 120.0 mg/kg/injection, schedule: Q01DX005 (ip), vehicle: saline with Tween-80) 93 % of control.

As to `COc1cc2cc3c(nc2cc1OC)OC(=O)/C3=C\c1ccccc1`, the T/C is 99 % of control under setting [1], 98 % of control under setting [2] and 103 % of control under setting [3].

As to `CC1=C(C2CO2)C(=O)c2ccccc2C1=O` (stereo not given), the T/C was 104 % of control and 107 % of control (dose: 1.56 mg/kg/injection, schedule: Q01DX005 (ip), vehicle: Klucel (hydroxypropylcellulose) (HPC)); 103 % of control and 104 % of control (dose: 3.12 mg/kg/injection, schedule: Q01DX005 (ip), vehicle: Klucel (hydroxypropylcellulose) (HPC)); 99 % of control and 100 % of control and 94 % of control (dose: 6.25 mg/kg/injection, schedule: Q01DX005 (ip), vehicle: Klucel (hydroxypropylcellulose) (HPC)).

Turning to `CC(NC(=O)OCc1ccccc1)C(=O)Oc1ccccc1[N+](=O)[O-]` (stereo not given), the T/C reads like this: under setting [4], 96 % of control; under setting [5], 103 % of control; under setting [6], 105 % of control.

Regarding `Clc1ccc2c(NCC3CCCN4CCCCC34)ccnc2c1` (stereo not given), the T/C was 104 % of control under setting [7] and 101 % of control under setting [8].

As for `ClCCN(CCCl)c1ccc(N=Nc2cccc(Cl)c2Cl)cc1`, the T/C is, setting by setting: (dose: 150.0 mg/kg/injection, schedule: Q04DX003 (ip), vehicle: Klucel (hydroxypropylcellulose) (HPC)) 99 % of control; (dose: 300.0 mg/kg/injection, schedule: Q04DX003 (ip), vehicle: Klucel (hydroxypropylcellulose) (HPC)) 95 % of control.

Take `CCC1(O)C[C@@]2(CCCCC2I)OC1=O` (stereo not given in full): the T/C by setting is: under setting [1], 100 % of control; under setting [2], 103 % of control; under setting [3], 106 % of control.

Take `COc1cc(OC)c2c(=O)cc(-c3ccccc3)sc2c1`: the T/C runs as follows: (dose: 100.0 mg/kg/injection, schedule: Q01DX001 (ip), vehicle: saline with Tween-80) 100 % of control; (dose: 200.0 mg/kg/injection, schedule: Q01DX001 (ip), vehicle: saline with Tween-80) 94 % of control; (dose: 400.0 mg/kg/injection, schedule: Q01DX001 (ip), vehicle: saline with Tween-80) 95 % of control.

As for `COc1cc([N+](=O)[O-])ccc1Nc1c2ccccc2nc2ccccc12`, the T/C runs as follows: under setting [9], 99 % of control; under setting [10], 98 % of control; (dose: 200.0 mg/kg/injection, schedule: Q01DX009 (ip), vehicle: Klucel (hydroxypropylcellulose) (HPC)) 90 % of control.

On to `Cn1c(=O)c2c(-c3ccccc3)cc(-c3ccccc3)nc2n(C)c1=O`, for which the T/C reads like this: (dose: 100.0 mg/kg/injection, schedule: Q04DX002 (ip), vehicle: saline with Tween-80) 97 % of control; (dose: 200.0 mg/kg/injection, schedule: Q04DX002 (ip), vehicle: saline with Tween-80) 100 % of control; (dose: 400.0 mg/kg/injection, schedule: Q04DX002 (ip), vehicle: saline with Tween-80) 101 % of control.

Turning to `CC(=O)Oc1nnc(OC(C)=O)n1-c1ccccc1`, the T/C was 114 % of control under setting [7]; 111 % of control under setting [8]; 115 % of control (dose: 200.0 mg/kg/injection, schedule: Q01DX005 (ip), vehicle: Klucel (hydroxypropylcellulose) (HPC)).

Take `CCCC1(CC(=O)O)OCCc2c1[nH]c1ccccc21` (stereo not given): the T/C by setting is: under setting [9], 102 % of control; under setting [10], 108 % of control.

For the compound `Fc1cc(F)c(F)c(OCC2CO2)c1F` (stereo not given), the T/C by setting is: under setting [4], 100 % of control; under setting [5], 94 % of control; under setting [6], 101 % of control.

With `COC1=C/C(=C\N(O)C(C)(C)CO)C=CC1=O`, the T/C runs as follows: under setting [4], 99 % of control; under setting [5], 91 % of control; under setting [6], 91 % of control.

In the case of `O=[N+]([O-])c1ccc(SNc2ccc(NSc3ccc([N+](=O)[O-])cc3)cc2)cc1`, the T/C is 95 % of control (dose: 12.5 mg/kg/injection, schedule: Q01DX001 (ip), vehicle: saline with Tween-80); 100 % of control (dose: 25.0 mg/kg/injection, schedule: Q01DX001 (ip), vehicle: saline with Tween-80); 100 % of control (dose: 50.0 mg/kg/injection, schedule: Q01DX001 (ip), vehicle: saline with Tween-80).

Regarding `N#CC/C(=N\Nc1ccc([N+](=O)[O-])cc1[N+](=O)[O-])c1ccccc1`, the T/C was 100 % of control (dose: 100.0 mg/kg/injection, schedule: Q04DX003 (ip), vehicle: saline with Tween-80); 90 % of control (dose: 200.0 mg/kg/injection, schedule: Q04DX003 (ip), vehicle: saline with Tween-80); 95 % of control (dose: 400.0 mg/kg/injection, schedule: Q04DX003 (ip), vehicle: saline with Tween-80).

Consider `CC(=O)C(C(=O)Nc1cccc2ccccc12)C(C)=NCC(C)N=C(C)C(C(C)=O)C(=O)Nc1cccc2ccccc12.[Cu]` (stereo not given), for which the T/C was 110 % of control (dose: 12.5 mg/kg/injection, schedule: Q01DX005 (ip), vehicle: saline + Tween-80 + alcohol); 96 % of control (dose: 25.0 mg/kg/injection, schedule: Q01DX005 (ip), vehicle: saline + Tween-80 + alcohol); 105 % of control (dose: 50.0 mg/kg/injection, schedule: Q01DX005 (ip), vehicle: saline + Tween-80 + alcohol).

For the compound `CCCCCCCCN(CCCCCCCC)C(=N)c1ccnc2ccccc12`, the T/C reads like this: under setting [11], 101 % of control; under setting [12], 101 % of control; under setting [13], 97 % of control; under setting [1], 96 % of control.

Take `CCNC(=O)OCc1c(COC(=O)NCC)c(-c2ccc(Cl)c(Cl)c2)n2c1CCC2`: the T/C reads like this: (dose: 2.5 mg/kg/injection, schedule: Q01DX009 (ip), vehicle: distilled water + Tween-80) 152 % of control; (dose: 6.25 mg/kg/injection, schedule: Q01DX009 (ip), vehicle: saline with Tween-80) 154 % of control and 168 % of control; (dose: 10.0 mg/kg/injection, schedule: Q01DX009 (ip), vehicle: distilled water + Tween-80) 180 % of control; (dose: 12.5 mg/kg/injection, schedule: Q01DX009 (ip), vehicle: saline with Tween-80) 166 % of control and 168 % of control and 170 % of control; (dose: 20.0 mg/kg/injection, schedule: Q01DX009 (ip), vehicle: distilled water + Tween-80) 90 % of control.

For the compound `C/C(=N\NC(=S)Nc1ccc(N(C)C)cc1)c1ccccn1`, the T/C runs as follows: under setting [4], 118 % of control; under setting [5], 105 % of control.

With `CN=C(NC)c1ccc(NC(=O)c2ccc(C(=O)Nc3ccc(C(=NC)NC)c(C)c3)cc2)cc1C`, the T/C under setting [11] is 111 % of control and 118 % of control; the T/C under setting [12] was 119 % of control; the T/C under setting [13] is 164 % of control and 173 % of control.
